Results on 13 compounds are retold here after US12606533B2, “3-phenylpropylamine derivative” (DAIICHI SANKYO COMPANY, LIMITED, priority 2023, dated 2026).

What is called GI50 is the concentration giving 50% growth inhibition. High values mean less potent growth inhibition, low ones more potent growth inhibition. The DC50 is the midpoint of the concentration-degradation curve. Read a high DC50 as degradation only at high concentration.

One test concerns NCI-H295R cells. Nature of the test: Proliferation inhibitory action on NCI-H295R (CellTiter-Glo, 7 days). In kind it is cell-based, human. The following applies: Homo sapiens, NCI-H295R, 168 h. An outline of the steps: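 Compounds serially diluted in DMSO; cells seeded at 2×10^3 cells/well and cultured 7 days at 37° C, 5% CO2. CellTiter-Glo 2.0 luminescence read at day 0 and day 7; proliferation rate derived from compound-addition-day signal, untreated day-7 signal and treated day-7 signal.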
A general note: In ATP-based viability assays light output follows the ATP content of the culture.

The target of the next test is T1, SF-1 (Homo sapiens, UniProt Q13285).
T1 construct: NCI-H295R SF-1-HiBiT cells with HiBiT tag knocked in at the endogenous SF1 locus; host or cells: NCI-H295R SF-1-HiBiT (knock-in at endogenous locus)
Nature of the test: SF1 degradation induction in NCI-H295R SF-1-HiBiT cells (HiBiT DC50). Type of test: cell-based. The following applies: 24 hr, concentration that induces 50% degradation of SF-1. In a few lines: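 NCI-H295R cells carrying HiBiT-tagged SF-1, plated and grown 24 hr, then exposed to serially diluted compounds for 24 hr at 37° C. Remaining SF-1 read by lytic HiBiT luminescence; degradation rate from treated vs compound-free signal, DC50 as concentration giving 50% degradation.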
(The HiBiT peptide binds its large partner to form an active luciferase.)

`COc1ccc([C@]2(CCN(CC(C)(C)C(F)(F)F)C[C@H]3CC[C@H](c4ccc(NC(=O)C5CC(Nc6ccc7c(c6)n(C)c(=O)n7C6CCC(=O)NC6=O)C5)cc4)CC3)CCOC(C)(C)C2)cc1` (stereo partly drawn) [BD6, 3-{[1-(2,6-Dioxopiperidin-3-yl)-3-methyl-2-oxo-2,3-dihydro-1H-benzimidazol-5-yl]amino)-N-[4-(trans-4-{[{2-[(4R)-4-(4-methoxyphenyl)-2,2-dimethyltetrahydro-2H-pyran-4-yl]ethyl}(3,3,3-trifluoro-2,2-dimethylpropyl)amino]methyl}cyclohexyl)phenyl]cyclobutanecarbox amide] returned a GI50 in the test with NCI-H295R cells of 57 nM. In addition, it took 3 nM to reach half-maximal degradation at SF-1 (DC50).

With `COc1ccc([C@]2(CCN(Cc3ccc(OC4CC5(CCN(CC(=O)N6CCc7ccc8c(c7C6)n(C)c(=O)n8C6CCC(=O)NC6=O)CC5)C4)cc3)CC(C)(C)C(F)(F)F)CCOC(C)(C)C2)cc1` (stereo partly drawn) [Example AK10, 3-(8-{[2-(4-{[{2-[(4R)-4-(4-Methoxyphenyl)-2,2-dimethyltetrahydro-2H-pyran-4-yl]ethyl}(3,3,3-trifluoro-2,2-dimethylpropyl)amino]methyl}phenoxy)-7-azaspiro[3.5]nonan-7-yl]acetyl}-1-methyl-2-oxo-1,2,6,7,8,9-hexahydro-3H-imidazo[4,5-h]isoquinolin-3-yl)piperidine-2,6-dione], growth in the test with NCI-H295R cells was halved (GI50) at 82 nM. The same compound gave a DC50 at SF-1 of 4.9 nM.

Consider `COc1ccc([C@]2(CCN(Cc3ccc(C4=CCC(CN5CCN(C(=O)c6cccc7c6n(C)c(=O)n7C6CCC(=O)NC6=O)CC5)CC4)cc3)CC(C)(C)C(F)(F)F)CCOC(C)(C)C2)cc1` (stereo partly drawn) [Example AH4, 3-[4-({4-[(4′-{[{2-[(4R)-4-(4-Methoxyphenyl)-2,2-dimethyltetrahydro-2H-pyran-4-yl]ethyl}(3,3,3-trifluoro-2,2-dimethylpropyl)amino]methyl}-2,3,4,5-tetrahydro[biphenyl]-4-yl)methyl]piperazin-1-yl}carbonyl)-3-methyl-2-oxo-2,3-dihydro-1H-benzimidazol-1-yl]piperidine-2,6-dione], for which the GI50 in the test on NCI-H295R cells worked out at 123 nM. Also, half-maximal degradation on SF-1 (DC50) was put at 5.7 nM.

Regarding `COc1ccc([C@]2(CCN(CC(C)(C)C(F)(F)F)C[C@H]3CC[C@H](c4ccc(NC(=O)N5CCC(Nc6ccc7c(c6)n(C)c(=O)n7C6CCC(=O)NC6=O)CC5)cc4)CC3)CCOC(C)(C)C2)cc1` (stereo partly drawn) [CA1, 4-{[1-(2,6-Dioxopiperidin-3-yl)-3-methyl-2-oxo-2,3-dihydro-1H-benzimidazol-5-yl]amino}-N-[4-(trans-4-{[{2-[(4R)-4-(4-methoxyphenyl)-2,2-dimethyltetrahydro-2H-pyran-4-yl]ethyl) (3,3,3-trifluoro-2,2-dimethylpropyl)amino]methyl}cyclohexyl)phenyl]piperidine-1-carboxamide], in the test with NCI-H295R cells, it took 48 nM to inhibit growth by half (GI50). The compound further yielded a DC50 at SF-1 of 5.5 nM.

`COc1ccc([C@]2(CCN(Cc3ccc(C4=CC[C@H](C(=O)N5CCC(Nc6cccc7c6n(C)c(=O)n7C6CCC(=O)NC6=O)CC5)CC4)c(F)c3)CC(C)(C)C(F)(F)F)CCOC(C)(C)C2)cc1` (stereo partly drawn) [CD2, 3-{4-[(1-{[(4R)-2′-Fluoro-4′-{[{2-[(4R)-4-(4-methoxyphenyl)-2,2-dimethyltetrahydro-2H-pyran-4-yl]ethyl}(3,3,3-trifluoro-2,2-dimethylpropyl)amino]methyl}-2,3,4,5-tetrahydro[biphenyl]-4-yl]carbonyl}piperidin-4-yl)amino]-3-methyl-2-oxo-2,3-dihydro-1H-benzimidazol-1-yl}piperidine-2,6-dione] showed a GI50 in the test with NCI-H295R cells of 33 nM. The compound also gave a DC50 at SF-1 of 7 nM.

`COc1ccc([C@]2(CCN(Cc3ccc(C4=CC[C@H](CN5CCN(C(=O)c6ccc7c(c6)n(C)c(=O)n7C6CCC(=O)NC6=O)CC5)CC4)cc3)CC(C)(C)C(F)(F)F)CCOC(C)(C)C2)cc1` (stereo partly drawn) [BI2, 3-{5-[(4-{[(4R)-4′-{[{2-[(4R)-4-(4-Methoxyphenyl)-2,2-dimethyltetrahydro-2H-pyran-4-yl]ethyl)(3,3,3-trifluoro-2,2-dimethylpropyl)amino]methyl}-2,3,4,5-tetrahydro[biphenyl]-4-yl]methyl}piperazin-1-yl)carbonyl]-3-methyl-2-oxo-2,3-dihydro-1H-benzimidazol-1-yl}piperidine-2,6-dione] returned a GI50 in the test with NCI-H295R cells of 79 nM. For the same compound, at SF-1, the DC50 is 11 nM.

For `COc1ccc([C@]2(CCN(Cc3ccc(C4=CC[C@H](C(=O)N5CC(Nc6ccc7c8c6CCCn8c(=O)n7C6CCC(=O)NC6=O)C5)CC4)c(F)c3)CC(C)(C)C(F)(F)F)CCOC(C)(C)C2)cc1` (stereo partly drawn) [BW3, 3-{7-[(1-{[(4R)-2′-Fluoro-4′-{[{2-[(4R)-4-(4-methoxyphenyl)-2,2-dimethyltetrahydro-2H-pyran-4-yl]ethyl}(3,3,3-trifluoro-2,2-dimethylpropyl)amino]methyl}-2,3,4,5-tetrahydro[biphenyl]-4-yl]carbonyl}azetidin-3-yl)amino]-2-oxo-5,6-dihydro-4H-imidazo[4,5,1-ij]quinolin-1(2H)-yl}piperidine-2,6-dione], the GI50 with NCI-H295R cells came to 86 nM. The DC50 on SF-1 amounted to 9.1 nM.

In the test with NCI-H295R cells, `COc1ccc([C@]2(CCN(Cc3ccc(C4=CC[C@H](CN5CCN(C(=O)c6ccc7c8c6NCCn8c(=O)n7[C@@H]6CCC(=O)NC6=O)CC5)CC4)cc3)CC(C)(C)C(F)(F)F)CCOC(C)(C)C2)cc1` [CF1, (3R)-3-{7-[(4-{[(4R)-4′-{[{2-[(4R)-4-(4-Methoxyphenyl)-2,2-dimethyltetrahydro-2H-pyran-4-yl]ethyl)(3,3,3-trifluoro-2,2-dimethylpropyl)amino]methyl}-2,3,4,5-tetrahydro[biphenyl]-4-yl]methyl}piperazin-1-yl)carbonyl]-2-oxo-5,6-dihydro-4H-imidazo[1,5,4-de]quinoxalin-1(2H)-yl}piperidine-2,6-dione] yielded a GI50 of 84 nM. The compound also showed a DC50 at SF-1 of 5.1 nM.

In turn, `COc1ccc([C@]2(CCN(Cc3ccc(C4=CCC(C(=O)N5CCC(N(C)c6ccc7c8c6CCCn8c(=O)n7C6CCC(=O)NC6=O)CC5)CC4)c(F)c3)CC(C)(C)C(F)(F)F)CCOC(C)(C)C2)cc1` (stereo partly drawn) [BH5, 3-{7-[{1-[(2′-Fluoro-4′-{[{2-[(4R)-4-(4-methoxyphenyl)-2,2-dimethyltetrahydro-2H-pyran-4-yl]ethyl}(3,3,3-trifluoro-2,2-dimethylpropyl)amino]methyl}-2,3,4,5-tetrahydro[biphenyl]-4-yl)carbonyl]piperidin-4-yl}(methyl)amino]-2-oxo-5,6-dihydro-4H-imidazo[4,5,1-ij]quinolin-1(2H)-yl}piperidine-2,6-dione] had a GI50 in the test with NCI-H295R cells of 79 nM. The DC50 at SF-1 was 7.7 nM.

On to `COc1ccc([C@]2(CCN(Cc3ccc(OC4CC5(CCN(CC(=O)N6CCn7c(=O)n(C8CCC(=O)NC8=O)c8cccc6c87)CC5)C4)cc3)CC(C)(C)C(F)(F)F)CCOC(C)(C)C2)cc1` (stereo partly drawn) [AN5, 3-[6-{[2-(4-{[{2-[(4R)-4-(4-Methoxyphenyl)-2,2-dimethyltetrahydro-2H-pyran-4-yl]ethyl}(3,3,3-trifluoro-2,2-dimethylpropyl)amino]methyl}phenoxy)-7-azaspiro[3.5]nonan-7-yl]acetyl}-2-oxo-5,6-dihydro-4H-imidazo[1,5,4-de]quinoxalin-1(2H)-yl]piperidine-2,6-dione], for which the GI50 in the test with NCI-H295R cells was 92 nM. Also, at SF-1, the DC50 came to 12 nM.

For `COc1ccc([C@]2(CCN(Cc3ccc([C@H]4CC[C@@H](CN5CCN(C(=O)c6ccc7c(c6)n(C)c(=O)n7C6CCC(=O)NC6=O)CC5)CC4)cc3)CC(C)(C)C(F)(F)F)CCOC(C)(C)C2)cc1` (stereo partly drawn) [Example AI11, 3-{5-[(4-{[Cis-4-(4-{[{2-[(4R)-4-(4-methoxyphenyl)-2,2-dimethyltetrahydro-2H-pyran-4-yl]ethyl}(3,3,3-trifluoro-2,2-dimethylpropyl)amino]methyl}phenyl)cyclohexyl]methyl}piperazin-1-yl)carbonyl]-3-methyl-2-oxo-2,3-dihydro-1H-benzimidazol-1-yl}piperidine-2,6-dione], the GI50 with NCI-H295R cells was determined as 90 nM. On SF-1, the DC50 stood at 6.2 nM.

On to `COc1ccc([C@]2(CCN(Cc3ccc(C4=CCC(CN5CCN(Cc6ccc7c(c6)n(C)c(=O)n7C6CCC(=O)NC6=O)CC5=O)CC4)cc3)CC(C)(C)C(F)(F)F)CCOC(C)(C)C2)cc1` (stereo partly drawn) [AX3, 3-[5-({4-[(4′-{[{2-[(4R)-4-(4-Methoxyphenyl)-2,2-dimethyltetrahydro-2H-pyran-4-yl]ethyl)(3,3,3-trifluoro-2,2-dimethylpropyl)amino]methyl}-2,3,4,5-tetrahydro[biphenyl]-4-yl)methyl]-3-oxopiperazin-1-yl}methyl)-3-methyl-2-oxo-2,3-dihydro-1H-benzimidazol-1-yl]piperidine-2,6-dione], for which the GI50 with NCI-H295R cells is 61 nM. This compound returned a DC50 on SF-1 of 7.1 nM.

For the compound `COc1ccc([C@]2(CCN(Cc3ccc(C4=CC[C@H](CN5CCN(C(=O)c6ccc7c8c6O[C@@H]6COC[C@@H]6n8c(=O)n7C6CCC(=O)NC6=O)CC5)CC4)cc3)CC(C)(C)C(F)(F)F)CCOC(C)(C)C2)cc1` (relative stereo) [BV10, 3-[(6aS*,9aS*)-5-[(4-{[(4R)-4′-{[{2-[(4R)-4-(4-Methoxyphenyl)-2,2-dimethyltetrahydro-2H-pyran-4-yl]ethyl}(3,3,3-trifluoro-2,2-dimethylpropyl)amino]methyl}-2,3,4,5-tetrahydro[biphenyl]-4-yl]methyl}piperazin-1-yl)carbonyl]-1-oxo-6a, 7,9,9a-tetrahydrofuro[3,4-b]imidazo[1,5,4-de][1,4]benzoxazin-2(1H)-yl]piperidine-2,6-dione], the GI50 in the test on NCI-H295R cells turned out to be 123 nM. This compound registered a DC50 on SF-1 of 14 nM.
